# Data as given in patent publication US6576600B1, “Detergent” (Tokuyama Corporation, priority 1999, dated 2003).
# Assay: Solubility / compatibility of the organic solvents in water at 60° C.
# Type: physicochemical
# Description: The above component (A) in the present invention is a polar organic solvent having low compatibility with water. The expression “low compatibility with water” means that only a small amount of the component dissolves in water, the solubility in water at 60° C., that is, the proportion of a portion soluble in water is preferably 50 vol % or less, more preferably 30 vol % or less. The expression “polar organic solvent” means an organic solvent having a relative dielectric constant of preferably 8 or more, more preferably 10 or more.
# The organic solvents used in the examples and comparative examples are as follows.
solubility in water at 60° C.,Compound,compatibility with water at 60° C.
,"CCN1CCN(C)C1=O [DEI, 1-ethyl-3-methyl-2-imidazolidinone]",compatible with water at 60 °C in any ratio
,"CN1CCN(C)C1=O [DMI, 1,3-dimethyl-2-imidazolidinone]",compatible with water at 60 °C in any ratio
5 vol %,"CCOCC(C)OCC(C)OCC (centres unmarked) [DPDE, dipropylene glycol diethyl ether]",
12 vol %,"CCCN1CCN(CCC)C1=O [DPI, 1,3-dipropyl-2-imidazolidinone]",
,"COC(C)COC(C)CO (centres unmarked) [DPM, dipropylene glycol monomethyl ether, reference compound]",compatible with water at 60 °C in any ratio
10 vol %,"CCCOC(C)COC(C)CO (centres unmarked) [DPP, dipropylene glycol monopropyl ether]",
13 vol %,"CCCCCCCCN1CCCC1=O [NOP, N-octylpyrrolidone]",
6 vol %,"CCCCOCC(C)O (centres unmarked) [PB, propylene glycol monobutyl ether]",
